Experimental data as given in ChEMBL document CHEMBL1201862, “PubChem BioAssay data set” (2004).
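Five concentrations, 48 hours, 96-well plates. At the GI50, growth is halved.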 Active and inactive are the calls of the source. Rule as the data show it: active = GI50 up to about 1.1 µM and inactive = higher.

Key:
Experiment in all cases: inhibition of tumour cell growth, NCI panel, 48 h
ACHN = test system: ACHN
COLO 205 = test system: COLO 205
DMS-114 = test system: DMS-114
EKVX = test system: EKVX
HL-60 = test system: HL-60
HOP-92 = test system: HOP-92
M14 = test system: M14
Malme-3M = test system: Malme-3M
NCI-H226 = test system: NCI-H226
OVCAR-4 = test system: OVCAR-4
OVCAR-5 = test system: OVCAR-5
OVCAR-8 = test system: OVCAR-8
SK-MEL-2 = test system: SK-MEL-2
SK-MEL-5 = test system: SK-MEL-5
UO-31 = test system: UO-31
CAKI-1 = test system: CAKI-1
NCI/ADR-RES = test system: NCI/ADR-RES
PC-3 = test system: PC-3
SR = test system: SR
T47D = test system: T47D

Structure (SMILES)	GI50 (ACHN)	GI50 (COLO 205)	GI50 (DMS-114)	GI50 (EKVX)	GI50 (HL-60)	GI50 (HOP-92)	GI50 (M14)	GI50 (Malme-3M)	GI50 (NCI-H226)	GI50 (OVCAR-4)	GI50 (OVCAR-5)	GI50 (OVCAR-8)	GI50 (SK-MEL-2)	GI50 (SK-MEL-5)	GI50 (UO-31)	GI50 (CAKI-1)	GI50 (NCI/ADR-RES)	GI50 (PC-3)	GI50 (SR)	GI50 (T47D)
NNC(=O)C(=O)N/N=C1\CCCC1C(=O)CCC(=O)Nc1cccc(Cl)c1 (stereo not given)	> 100 µM (inactive)	> 100 µM (inactive)	> 100 µM (inactive)	> 100 µM (inactive)	> 100 µM (inactive)	> 100 µM (inactive)	> 100 µM (inactive)	> 100 µM (inactive)	> 100 µM (inactive)	> 100 µM (inactive)	> 100 µM (inactive)	> 100 µM (inactive)	> 100 µM (inactive)	> 100 µM (inactive)	> 100 µM (inactive)					
Cn1cc(NC(=O)c2cc(NC(=O)CCCCCCC(=O)Nc3cc(C(=O)Nc4cc(C(=O)NCCC(=N)N)n(C)c4)n(C)c3)cn2C)cc1C(=O)NCCC(=N)N	8.85 µM (inactive)	6.08 µM (inactive)	2.47 µM (inactive)	16.7 µM (inactive)	2.84 µM (inactive)	> 100 µM (inactive)	16 µM (inactive)	2.67 µM (inactive)		36.1 µM (inactive)	> 100 µM (inactive)	16.3 µM (inactive)		1.92 µM (inactive)	39.4 µM (inactive)	11 µM (inactive)				
CC(=O)O[C@H]1C(=O)[C@@]2(C)[C@H]([C@H](OC(=O)c3ccccc3)[C@]3(O)C[C@H](OC(=O)[C@H](O)[C@@H](NC(=O)c4ccccc4)C4CCCCC4)C(C)=C1C3(C)C)[C@]1(OC(C)=O)CO[C@@H]1C[C@@H]2O	0.288 µM (active)	< 0.01 µM (active)		3 µM (inactive)	< 0.01 µM (active)	< 0.0174 µM (active)	< 0.01 µM (active)	23.6 µM (inactive)	< 0.01 µM (active)	0.0227 µM (active)	< 0.01 µM (active)	< 0.01 µM (active)	17.3 µM (inactive)	< 0.01 µM (active)	0.313 µM (active)	0.409 µM (active)	2.96 µM (inactive)	0.0468 µM (active)	< 0.01 µM (active)	< 0.01 µM (active)
Cc1c(-c2ccccc2)c(C#N)c2nnn(C3CCCCC3)c(=O)n12	50.5 µM (inactive)	88.1 µM (inactive)		37 µM (inactive)	> 100 µM (inactive)	24 µM (inactive)	87.3 µM (inactive)	> 100 µM (inactive)	35.8 µM (inactive)	40.6 µM (inactive)	94.4 µM (inactive)	44 µM (inactive)	31.6 µM (inactive)	72.4 µM (inactive)	0.74 µM (active)	0.425 µM (active)	> 100 µM (inactive)	20.2 µM (inactive)	24.8 µM (inactive)	> 100 µM (inactive)
O=C(O)CSc1ccccc1C(=O)O	> 100 µM (inactive)	> 100 µM (inactive)		> 100 µM (inactive)	6.03 µM (inactive)	> 100 µM (inactive)	> 100 µM (inactive)	> 100 µM (inactive)	99.1 µM (inactive)	> 100 µM (inactive)	> 100 µM (inactive)	> 100 µM (inactive)	> 100 µM (inactive)	> 100 µM (inactive)	> 100 µM (inactive)	> 100 µM (inactive)	> 100 µM (inactive)	> 100 µM (inactive)	> 100 µM (inactive)	> 100 µM (inactive)
NCC(=O)Nc1ccc(Cl)cc1C(=O)c1ccc[nH]1	> 74 µM (inactive)	> 86.1 µM (inactive)		> 100 µM (inactive)	15.1 µM (inactive)	15.4 µM (inactive)	99.3 µM (inactive)	> 56.4 µM (inactive)	46.3 µM (inactive)	21.7 µM (inactive)	55.6 µM (inactive)	> 56.8 µM (inactive)	61.1 µM (inactive)	49 µM (inactive)	21.7 µM (inactive)	78 µM (inactive)	49 µM (inactive)	25.9 µM (inactive)	8.99 µM (inactive)	54.1 µM (inactive)
COC(=O)c1c(O)ccc2c1c1c(n2Cc2ccc(Cl)cc2Cl)C(=O)c2ccccc2C1=O	7.85 µM (inactive)	11.2 µM (inactive)		10.4 µM (inactive)	13.8 µM (inactive)	12.2 µM (inactive)	14.1 µM (inactive)	16 µM (inactive)	10.9 µM (inactive)	1.95 µM (inactive)	19.5 µM (inactive)	8.99 µM (inactive)	14.2 µM (inactive)	13.7 µM (inactive)	10.5 µM (inactive)	12.2 µM (inactive)	10.7 µM (inactive)	7.74 µM (inactive)	3.44 µM (inactive)	1.97 µM (inactive)
CCN(CC)CC1c2ccccc2C(CNc2ccccc2)N1C (stereo not given)	> 100 µM (inactive)	> 100 µM (inactive)	> 100 µM (inactive)	> 100 µM (inactive)	29.6 µM (inactive)	30.1 µM (inactive)	> 100 µM (inactive)	> 100 µM (inactive)		> 100 µM (inactive)	> 100 µM (inactive)	> 100 µM (inactive)	> 100 µM (inactive)	> 100 µM (inactive)	> 100 µM (inactive)	92 µM (inactive)				
C#CCNC(Cc1ccccc1)C(=O)O (stereo not given)	> 100 µM (inactive)	> 100 µM (inactive)		> 100 µM (inactive)	> 100 µM (inactive)	> 100 µM (inactive)	> 100 µM (inactive)	> 100 µM (inactive)	> 100 µM (inactive)	> 100 µM (inactive)	> 100 µM (inactive)	> 100 µM (inactive)	> 100 µM (inactive)	> 100 µM (inactive)	> 100 µM (inactive)	> 100 µM (inactive)	> 100 µM (inactive)	> 100 µM (inactive)	> 100 µM (inactive)	> 100 µM (inactive)
COc1ccc(/N=C2\C(=O)C3=C(OC(C)(C)CC3)c3ccccc32)cc1	0.845 µM (active)	2.93 µM (inactive)		0.993 µM (active)	0.592 µM (active)	2.66 µM (inactive)	0.769 µM (active)	0.791 µM (active)	6.37 µM (inactive)	0.773 µM (active)	2.82 µM (inactive)	0.43 µM (active)	1.16 µM (inactive)	0.838 µM (active)	0.755 µM (active)	0.991 µM (active)	0.802 µM (active)	1.29 µM (inactive)	0.935 µM (active)	0.839 µM (active)
COCN1C(=O)C2CC(/C=C/C(N)=O)=CN2C(=O)c2ccccc21 (stereo not given)		> 100 µM (inactive)	> 100 µM (inactive)	> 100 µM (inactive)	> 100 µM (inactive)		> 100 µM (inactive)		> 100 µM (inactive)	> 100 µM (inactive)		> 100 µM (inactive)		> 100 µM (inactive)						
CCOC(=O)Cn1nnc2ccc(Nc3nc4ccccc4nc3C(=O)OCC)cc21	> 100 µM (inactive)	> 100 µM (inactive)		> 100 µM (inactive)	> 100 µM (inactive)	56.2 µM (inactive)	> 100 µM (inactive)	> 100 µM (inactive)	> 100 µM (inactive)	> 100 µM (inactive)	> 100 µM (inactive)	> 100 µM (inactive)	> 100 µM (inactive)	> 100 µM (inactive)	30.1 µM (inactive)	> 100 µM (inactive)	> 100 µM (inactive)	> 100 µM (inactive)	> 100 µM (inactive)	> 100 µM (inactive)
O=C(Oc1ccccc1)c1cc2cc(CCl)ccc2oc1=O	8.99 µM (inactive)	17.8 µM (inactive)		17.6 µM (inactive)	18.2 µM (inactive)	14.7 µM (inactive)	13.1 µM (inactive)	1.74 µM (inactive)	> 100 µM (inactive)	24.8 µM (inactive)	97.7 µM (inactive)	47.2 µM (inactive)	3.17 µM (inactive)	12.8 µM (inactive)	20.4 µM (inactive)	14.5 µM (inactive)	30 µM (inactive)	14.2 µM (inactive)	28.1 µM (inactive)	15.6 µM (inactive)
COc1ccc(-c2cc(C(=O)Nc3ccc(C)c(C)c3)nc(NC#N)n2)cc1	> 100 µM (inactive)	> 100 µM (inactive)	> 100 µM (inactive)	> 100 µM (inactive)			> 100 µM (inactive)	> 100 µM (inactive)		> 100 µM (inactive)	> 100 µM (inactive)	> 100 µM (inactive)	> 100 µM (inactive)	> 100 µM (inactive)	> 100 µM (inactive)	> 100 µM (inactive)				
CCN(CC)/[N+]([O-])=N/OCOC(C)=O	> 100 µM (inactive)	> 100 µM (inactive)		> 100 µM (inactive)	65.9 µM (inactive)	> 100 µM (inactive)	> 100 µM (inactive)	> 100 µM (inactive)	> 100 µM (inactive)	> 100 µM (inactive)	> 100 µM (inactive)	> 100 µM (inactive)	> 100 µM (inactive)	> 100 µM (inactive)	> 100 µM (inactive)	> 100 µM (inactive)	> 100 µM (inactive)	> 100 µM (inactive)	43.4 µM (inactive)	> 100 µM (inactive)
CN(Cc1cc(Cl)c(Cl)cc1NC(=O)CN)[C@H]1CCCC[C@@H]1N1CCCC1	> 100 µM (inactive)	15.2 µM (inactive)		34.9 µM (inactive)	40.4 µM (inactive)	> 100 µM (inactive)	17.1 µM (inactive)	18.3 µM (inactive)	66.4 µM (inactive)	> 100 µM (inactive)	46.3 µM (inactive)	54.5 µM (inactive)	16.2 µM (inactive)	17.7 µM (inactive)	20.7 µM (inactive)	92.7 µM (inactive)	> 100 µM (inactive)	50.7 µM (inactive)	21.5 µM (inactive)	38.6 µM (inactive)
